Reference: patent publication US6281349A, “Method for nucleic acid purification using iodine” (priority 2000, dated 2001)

Tests used:
Assay type in all cases: biochemical
[1] = target: T1, Ribonuclease A (RNAase A, pancreatic ribonuclease) (Bos taurus, UniProt P61823); experiment: Residual RNAase activity test of plasmids purified with or without iodine (wheat germ rRNA degradation); conditions: 50 mM iodine during potassium acetate precipitation, RNAase A 10 micrograms/mL in cell resuspension buffer, 37° C., 30 min
T1 sequence (P61823 27-150): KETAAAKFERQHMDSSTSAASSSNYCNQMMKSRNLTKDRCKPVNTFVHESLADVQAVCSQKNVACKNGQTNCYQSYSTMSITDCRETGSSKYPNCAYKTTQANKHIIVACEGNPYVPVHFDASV
Experimental: Plasmids were purified by two methods both using RNAase A at 10 micrograms/mL in the cell resuspension buffer. In the right hand sample 50 mM iodine was included during potassium acetate precipitation of unwanted cellular components. In the center lane iodine was not included in the potassium acetate buffer. These purified plasmid preparations, "plasmid+I2 " and "plasmid-I2 ", respectively were incubated with wheat germ RNA in a sensitive assay designed to test for the presence residual RNAase activity. Wheat germ rRNA (0.5 micrograms in 5 microlitres of resuspension buffer: Soln A) was incubated at 37° C. for 30 min either alone or with 2 microlitres of purified plasmid dissolved in Soln A. The resulting samples were electrophoresed in the presence of SYBR green II to detect the nucleic acids. The 28s and 18s components of wheat germ rRNA were not degraded when incubated with buffer alone (left channel) or with plasmids purified by the method employing RNAase A and iodine (right channel). The rRNA was degraded when incubated with plasmids purified with RNAase and without iodine (center channel).

[2] = target: T2, DNaseI (Promega) (Bos taurus, UniProt P00639); experiment: Residual nuclease activity test after iodine miniprep (Mg/Ca incubation, supercoiled to nicked plasmid); conditions: 5 Units DNaseI added to cells, 5 mM MgCl2, CaCl2, 90 minutes at 37° C.
T2 construct: purchased Promega
T2 sequence (P00639 23-282): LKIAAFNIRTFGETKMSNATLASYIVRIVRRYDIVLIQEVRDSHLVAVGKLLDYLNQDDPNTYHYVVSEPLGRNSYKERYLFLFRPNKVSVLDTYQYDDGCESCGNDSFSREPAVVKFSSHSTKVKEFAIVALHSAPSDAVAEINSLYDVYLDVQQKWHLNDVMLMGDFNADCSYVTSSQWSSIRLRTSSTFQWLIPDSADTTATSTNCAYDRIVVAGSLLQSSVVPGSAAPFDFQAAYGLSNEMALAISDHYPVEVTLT
Experimental: (§1) Cells from 1 mL of terrific broth culture of pUC18 in NM522 (EndoI+) were resuspended in 0.2 mL of resuspension buffer (A). #1: No exogenous nuclease, #2:5 micrograms Micrococcal nuclease (MN) (300 units Boehringer Mannheim), #3:5 Units DNaseI (Promega), were added to the respective cell samples before processing for the preparation of the plasmid. After processing by the preferred embodiment Iodine miniprep procedure an aliquot of each sample was made 5 mM each in MgCl2, CaCl2 and 20 mM Tris.HCl pH 8.3. After 90 minutes at 37° C. these were electrophoresed (bottom group) together with aliquots that had not been exposed to Mg/Ca (top group) in a 1% agarose gel with SYBR green II fluorescent dye for detection of nucleic acids.

[3] = target: T3, Endonuclease I (Endo I), endogenous, E. coli NM522 (EndoI+) (Escherichia coli, UniProt P25736); experiment: as above; conditions: preferred embodiment, 5 mM MgCl2, CaCl2, 90 minutes at 37° C., no exogenous nuclease
T3 construct: due to either the endogenous Endo I or to residual activity of either of the added nucleases; endogenous in cells; host or cells: E. coli NM522 (EndoI+)
T3 sequence (P25736 23-235): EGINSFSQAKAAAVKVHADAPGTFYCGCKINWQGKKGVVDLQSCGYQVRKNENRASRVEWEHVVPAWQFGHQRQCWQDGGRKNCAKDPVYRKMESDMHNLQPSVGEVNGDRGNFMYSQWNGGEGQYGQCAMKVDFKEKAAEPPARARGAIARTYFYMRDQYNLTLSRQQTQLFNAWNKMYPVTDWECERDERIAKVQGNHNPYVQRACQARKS
Experimental: as §1

[4] = target: T4, Micrococcal nuclease (MN) (Boehringer Mannheim) (Staphylococcus aureus, UniProt P00644); experiment: as above; conditions: 5 micrograms MN (300 units) added to cells, 5 mM MgCl2, CaCl2, 90 minutes at 37° C.
T4 construct: purchased Boehringer Mannheim
Experimental: as §1

With `II` [iodine] the “inactivation of RNase by iodine” value [1] was “effective in inactivating RNAase”, the “inactivation of DNaseI by iodine” value [2] was “lack of conversion of supercoiled plasmid (I) to nicked (II)” and the “inactivation of Endo I by iodine” value [3] was “lack of conversion of supercoiled plasmid (I) to nicked (II)”. The “inactivation of Micrococcal nuclease by iodine” value [4] was “lack of conversion of supercoiled plasmid (I) to nicked (II)”.
